Source: patent US20120101134A1, “5-MEMBERED HETEROARYL DERIVATIVES USED AS SPHINGOSINE 1-PHOSPHATE RECEPTOR AGONISTS” (GLAXO GROUP LIMITED, priority 2009, published 2012)

target: T1, human Endothelial Differentiation Gene 1 (EDG1) (Homo sapiens, UniProt P21453); experiment: S1P1 Tango assay - 96 well format; assay type: cell-based; conditions: EDG1-bla/U2OS cells, agonist
T1 construct: TEV protease site; Gal4-VP16 transcription factor; expressed in transfected cells; host or cells: EDG1-bla/U2OS (Tango GPCR-bla U2OS parental cell line)
Experimental: S1P1 Tango assay—96 Well Format
Recombinant EDG1-bla/U2OS cells (contain the human Endothelial Differentiation Gene 1 (EDG1) linked to a TEV protease site and a Gal4-VP16 transcription factor stably integrated into the Tango GPCR-bla U2OS parental cell line) were suspended in assay medium (Invitrogen Freestyle Expression Medium) at a density of 312, 500 cells/ml. Add 100 μl/well of the assay medium to the cell-free control wells (column 12) and 100 μl/well of the cell suspension to the test compound wells (row 2-8, column 1-10), the unstimulated control wells (DMSO) (column 11), and stimulated control wells (SIP) (row 1, column 1-10) in a Corning black-well, clear bottom 96-well plate. Cells were incubated at 37° C., 5% CO2 for 44-48 h.
Add 25 μl of 5× stock solution of test compounds in assay medium with 0.5% DMSO to the test compound wells, 25 μl of 5× stock solution of agonist (S1P) in assay medium with 0.5% DMSO to the stimulated compound wells, and 25 μl of 5× stock solution of 0.5% DMSO in assay medium to the unstimulated control and cell-free control wells.
After incubation at 37° C., 5% CO2 for 5 h, 25 μl of 6× substrate mixture (6 μl Solution A (1 mg LiveBLAzer™-FRET B/G substrate (CCF4-AM) in 912 μl DMSO) plus 60 μl Solution B plus 934 μl Solution C) was added to each well and incubate at room temperature for 2 h in dark. The plate was finally read on EnVision for two emission channels (460 nm and 530 nm).
All test compounds were dissolved in DMSO at a concentration of 10 mM and were prepared in 100% DMSO using a 1 in 5 dilution step to provide 10 point dose response curves. The dilutions were transferred to the assay plates ensuring that the DMSO concentration was constant across the plate for all assays.
Calculate the blue/green emission ratio (460 nm/530 nm) for each well, by dividing the background-subtracted Blue emission values by the background-subtracted Green emission values. The dose response curve is based on sigmoidal dose-response model. […]

T1 sequence (P21453 whole entry, the tested form may be a part): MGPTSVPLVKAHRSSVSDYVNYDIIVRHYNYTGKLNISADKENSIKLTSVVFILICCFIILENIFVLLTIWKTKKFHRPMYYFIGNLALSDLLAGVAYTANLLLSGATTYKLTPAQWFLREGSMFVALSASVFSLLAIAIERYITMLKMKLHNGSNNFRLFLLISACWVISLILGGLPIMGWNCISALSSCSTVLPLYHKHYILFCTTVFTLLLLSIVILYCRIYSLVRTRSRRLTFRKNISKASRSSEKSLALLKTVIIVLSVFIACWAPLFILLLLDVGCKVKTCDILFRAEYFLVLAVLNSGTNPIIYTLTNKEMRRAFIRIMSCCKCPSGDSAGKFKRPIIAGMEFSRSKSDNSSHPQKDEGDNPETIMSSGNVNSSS

EC50 | SMILES
> 1 µM | Cc1c(C[C@@H](C)C(=O)O)cccc1-c1noc(-c2cnc(OC(C)C)c(Cl)c2)n1 [Example 3, (2R)-3-[3-(5-{5-chloro-6-[(1-methylethyl)oxy]-3-pyridinyl}-1,2,4-oxadiazol-3-yl)-2-methylphenyl]-2-methylpropanoic acid]
> 1 µM | Cc1c(CCCC(=O)O)cccc1-c1noc(-c2cnc(OC(C)C)c(Cl)c2)n1 [Example 4, 4-[3-(5-{5-chloro-6-[(1-methylethyl)oxy]-3-pyridinyl}-1,2,4-oxadiazol-3-yl)-2-methylphenyl]butanoic acid]
> 1 µM | CC(C)Oc1ccc(-c2nc(-c3ccnc(CCCC(=O)O)c3)no2)cc1C#N [Example 21, 4-[4-(5-{3-cyano-4-[(1-methylethyl)oxy]phenyl}-1,2,4-oxadiazol-3-yl)-2-pyridinyl]butanoic acid]
